From publication PMC3214660 (Cancer prevention research (Philadelphia, Pa.), 2011)
pIC50: −log10 of the molar value.

Tests used:
[1] = Tissue analysis for defluorination in rat footpads; type: in vivo, Sprague-Dawley rats; conditions: compound 7 1 mg/kg i.p., 2 hours post dosing
COX-2 in RAW264.7 cells = type: cell-based, murine
mCOX-2 = molecular target: T1, mCOX-2 (Mus musculus, UniProt Q05769); test: Enzyme-inhibitor binding kinetics, time-dependent inhibition of purified mCOX-2; type: biochemical; conditions: mCOX-2, time-dependent inhibition
T1 sequence (Q05769 18-604): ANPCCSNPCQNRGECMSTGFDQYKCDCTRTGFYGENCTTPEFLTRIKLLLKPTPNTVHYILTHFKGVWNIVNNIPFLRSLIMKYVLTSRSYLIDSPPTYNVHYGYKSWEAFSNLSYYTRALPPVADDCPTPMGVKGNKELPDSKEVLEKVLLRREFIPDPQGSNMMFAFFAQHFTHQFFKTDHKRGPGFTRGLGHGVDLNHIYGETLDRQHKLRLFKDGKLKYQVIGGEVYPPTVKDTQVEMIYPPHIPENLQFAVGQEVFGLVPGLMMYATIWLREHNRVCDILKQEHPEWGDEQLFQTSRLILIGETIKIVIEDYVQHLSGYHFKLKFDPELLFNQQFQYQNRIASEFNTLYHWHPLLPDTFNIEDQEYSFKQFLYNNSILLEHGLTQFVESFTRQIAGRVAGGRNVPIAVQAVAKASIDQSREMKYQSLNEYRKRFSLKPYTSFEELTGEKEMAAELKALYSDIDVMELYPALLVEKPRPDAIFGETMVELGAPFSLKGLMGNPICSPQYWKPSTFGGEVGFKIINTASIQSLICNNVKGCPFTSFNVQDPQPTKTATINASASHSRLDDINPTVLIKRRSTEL

Structure (SMILES) | calculated extent of defluorination ([1]; rat footpad, n = 3) | amount in inflamed footpad ([1]; rat, LC-MS) | Inhibition of COX-2 in intact RAW264.7 cells, in words (COX-2 in RAW264.7 cells; activated RAW264.7 cells, prostaglandin production) | dissociation rate k−2 (mCOX-2) | inactivation rate k2 (mCOX-2) | KI, equilibrium constant for initial association (k−1/k1) (mCOX-2; 37 °C) | pIC50 (COX-2 in RAW264.7 cells; Mus musculus, RAW264.7, 0.5 h, read-out: RAW246.7 Cells IC50 COX-2)
Cc1ccc(-c2cc(CF)nn2-c2ccc(S(N)(=O)=O)cc2)cc1 [Compound 7] | 8.8 ± 5.0% | 486.3 pmol/g tissue | low nanomolar range | 0.0003 s⁻¹ | 0.035 s⁻¹ | 7300 ± 1600 nM | 
COc1ccc2c(c1)c(CC(=O)O)c(C)n2C(=O)c1ccc(Cl)cc1 [Indomethacin, reference compound] |  |  |  |  |  |  | 8.00
